Tested on: A498 complex spheroids with HUVEC/MSC, growth
Assay: Anticancer human tumor A498 cell line growth inhibition [AhR];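 further: seven day exposure starting three days after spheroid seeding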;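 on viability, T/C: luminescence signal used as a surrogate for viable cells; luminescence viability scaled so 100% equals DMSO vehicle wells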
Conditions: for IC50: curve of first compound; for viability, T/C: stronger effect = lower value
Summary of the method: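 Agents were dosed in half-log steps down from roughly clinical Cmax, or from 10 microM where Cmax was unknown, alone and with AhR antagonists. Read-out: percent test/control growth of tumor spheroids containing HUVEC and MSC stromal cells.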

[1] = second compound 0.1 µM, first compound 0.0316 µM
[2] = second compound 0.1 µM, first compound 0.1 µM
[3] = second compound 0.1 µM, first compound 0.316 µM
[4] = second compound 0.1 µM, first compound 1 µM
[5] = second compound 0.1 µM, first compound 3.16 µM
[6] = second compound 0.1 µM, first compound 10 µM
[7] = second compound 0.316 µM, first compound 0.0316 µM
[8] = second compound 0.316 µM, first compound 0.1 µM
[9] = second compound 0.316 µM, first compound 0.316 µM
[10] = second compound 0.316 µM, first compound 1 µM
[11] = second compound 0.316 µM, first compound 3.16 µM
[12] = second compound 0.316 µM, first compound 10 µM
[13] = second compound 1 µM, first compound 0.0316 µM
[14] = second compound 1 µM, first compound 0.1 µM
[15] = second compound 1 µM, first compound 0.316 µM
[16] = second compound 1 µM, first compound 1 µM
[17] = second compound 1 µM, first compound 3.16 µM
[18] = second compound 1 µM, first compound 10 µM
[19] = second compound 3.16 µM, first compound 0.0316 µM
[20] = second compound 3.16 µM, first compound 0.1 µM
[21] = second compound 3.16 µM, first compound 0.316 µM
[22] = second compound 3.16 µM, first compound 1 µM
[23] = second compound 3.16 µM, first compound 3.16 µM
[24] = second compound 3.16 µM, first compound 10 µM
[25] = second compound 10 µM, first compound 0.0316 µM
[26] = second compound 10 µM, first compound 0.1 µM
[27] = second compound 10 µM, first compound 0.316 µM
[28] = second compound 10 µM, first compound 1 µM
[29] = second compound 10 µM, first compound 3.16 µM
[30] = second compound 10 µM, first compound 10 µM

SMILES | IC50 (second compound 0.1 µM) [nM] | IC50 (second compound 0.316 µM) [nM] | IC50 (second compound 1 µM) [nM] | IC50 (second compound 3.16 µM) [nM] | IC50 (second compound 10 µM) [nM] | viability, T/C [1] [%] | viability, T/C [2] [%] | viability, T/C [3] [%] | viability, T/C [4] [%] | viability, T/C [5] [%] | viability, T/C [6] [%] | viability, T/C [7] [%] | viability, T/C [8] [%] | viability, T/C [9] [%] | viability, T/C [13] [%] | viability, T/C [14] [%] | viability, T/C [19] [%] | viability, T/C [20] [%] | viability, T/C [25] [%] | viability, T/C [26] [%] | also measured
COc1cc(Nc2ncc3c(n2)-c2ccc(Cl)cc2C(c2c(F)cccc2OC)=NC3)ccc1C(=O)O + Cc1ccccc1N=Nc1ccc(NC(=O)c2ccnn2C)c(C)c1 | 1920 | 1830 | 1510 | 1350 | 2550 | 70.2 | 73 | 65.8 | 54.4 | 46.6 | 33.5 | 70 | 72.4 | 70.7 | 67.8 | 67.2 | 69.2 | 72.7 | 63.9 | 63.4 | viability, T/C [10]: 54.9%; viability, T/C [11]: 45.2%; viability, T/C [12]: 34.2%; viability, T/C [15]: 59.6%; viability, T/C [16]: 56.5%; viability, T/C [17]: 41.3%; viability, T/C [18]: 31.8%; viability, T/C [21]: 62.2%; viability, T/C [22]: 49.9%; viability, T/C [23]: 44.8%; viability, T/C [24]: 31.8%; viability, T/C [27]: 56.7%; viability, T/C [28]: 59%; viability, T/C [29]: 47.9%; viability, T/C [30]: 35.1%
Cn1ncnc1C1c2n[nH]c(=O)c3cc(F)cc(c23)NC1c1ccc(F)cc1 (stereo not given) + Cc1ccccc1N=Nc1ccc(NC(=O)c2ccnn2C)c(C)c1 | > 100 | > 100 | > 100 | > 100 | > 100 | 86 | 88 |  |  |  |  | 90.4 | 88.2 |  | 81.5 | 87.3 | 83.2 | 73.7 | 79.6 | 81.7 | viability, T/C (second compound 0.1 µM, first compound 0.000316 µM): 102%; viability, T/C (second compound 0.1 µM, first compound 0.001 µM): 93.6%; viability, T/C (second compound 0.1 µM, first compound 0.00316 µM): 92.2%; viability, T/C (second compound 0.1 µM, first compound 0.01 µM): 94%; viability, T/C (second compound 0.316 µM, first compound 0.000316 µM): 96.3%; viability, T/C (second compound 0.316 µM, first compound 0.001 µM): 91.5%; viability, T/C (second compound 0.316 µM, first compound 0.00316 µM): 95.1%; viability, T/C (second compound 0.316 µM, first compound 0.01 µM): 93.3%; viability, T/C (second compound 1 µM, first compound 0.000316 µM): 93.5%; viability, T/C (second compound 1 µM, first compound 0.001 µM): 89%; viability, T/C (second compound 1 µM, first compound 0.00316 µM): 85.6%; viability, T/C (second compound 1 µM, first compound 0.01 µM): 81.2%; viability, T/C (second compound 3.16 µM, first compound 0.000316 µM): 83.7%; viability, T/C (second compound 3.16 µM, first compound 0.001 µM): 86.8%; viability, T/C (second compound 3.16 µM, first compound 0.00316 µM): 88.7%; viability, T/C (second compound 3.16 µM, first compound 0.01 µM): 84.7%; viability, T/C (second compound 10 µM, first compound 0.000316 µM): 82%; viability, T/C (second compound 10 µM, first compound 0.001 µM): 93%; viability, T/C (second compound 10 µM, first compound 0.00316 µM): 90.8%; viability, T/C (second compound 10 µM, first compound 0.01 µM): 85%
NS(=O)(=O)OCC1CC(n2ccc3c(NC4CCc5ccccc54)ncnc32)CC1O (stereo not given) + Cc1ccccc1N=Nc1ccc(NC(=O)c2ccnn2C)c(C)c1 | 334 | 359 | 316 | 341 | 348 | 87.8 | 83.8 | 49.3 | 31.3 | 26 | 20.1 | 88.5 | 83.8 | 51.2 | 86.2 | 78 | 83.5 | 77.3 | 78.2 | 71.7 | viability, T/C [10]: 31%; viability, T/C [11]: 25.7%; viability, T/C [12]: 21.3%; viability, T/C [15]: 49.2%; viability, T/C [16]: 30.1%; viability, T/C [17]: 24.2%; viability, T/C [18]: 21.9%; viability, T/C [21]: 49.6%; viability, T/C [22]: 33%; viability, T/C [23]: 25.9%; viability, T/C [24]: 22.7%; viability, T/C [27]: 50.5%; viability, T/C [28]: 33.9%; viability, T/C [29]: 25%; viability, T/C [30]: 23.2%
O=C(C=Cc1cccc(S(=O)(=O)Nc2ccccc2)c1)NO + Cc1ccccc1N=Nc1ccc(NC(=O)c2ccnn2C)c(C)c1 | 1950 | 2020 | 1850 | 1450 | 1790 | 84.2 | 88.4 | 72 | 56.9 | 45.4 | 19.8 | 95.6 | 87.5 | 75.2 | 82.4 | 82.7 | 85.5 | 80.9 | 80.2 | 75.7 | viability, T/C [10]: 59.5%; viability, T/C [11]: 46.3%; viability, T/C [12]: 20.1%; viability, T/C [15]: 68.2%; viability, T/C [16]: 54.6%; viability, T/C [17]: 47%; viability, T/C [18]: 18.3%; viability, T/C [21]: 63%; viability, T/C [22]: 55.7%; viability, T/C [23]: 42.4%; viability, T/C [24]: 18.8%; viability, T/C [27]: 71.1%; viability, T/C [28]: 55.1%; viability, T/C [29]: 43.9%; viability, T/C [30]: 17.5%

— PubChem BioAssay AID1919007 (Molecular Pharmacology Branch, DTP, NCI, 2023)
